Experimental data from ChEMBL document CHEMBL1140289, “Studies on the apoptotic activity of natural and synthetic retinoids: discovery of a new class of synthetic terphenyls that potently support cell growth and inhibit apoptosis in neuronal and HL-60 cells” (2005).

Legend:
HL-60 [1] = assay: Effect (1 uM) on HL-60 cell apoptosis cultured for 72 hours in nonsupplemented serum-free medium; assay type: functional, Homo sapiens
HL-60 [2] = assay: Effect (1 uM) on HL-60 cell growth cultured for 72 hours in nonsupplemented serum-free medium; assay type: functional, Homo sapiens

COc1cc(/C=C/c2ccc(C(=O)O)cc2)cc(OC)c1OC
Apoptosis (HL-60 [1]): 36% | Activity (HL-60 [2]): 166 no. of living cells (10E3) /mL

CC1=CCCC(C)(C)\C1=C/C=C(C)/C=C/C=C(\C)[C@@H](O)CO
Apoptosis (HL-60 [1]): 34% | Activity (HL-60 [2]): 181 no. of living cells (10E3) /mL

CC1(C)CCC(C)(C)c2cc(/C=C\c3ccc(C(=O)O)cc3)ccc21
Apoptosis (HL-60 [1]): 43% | Activity (HL-60 [2]): 100 no. of living cells (10E3) /mL

COc1cc(-c2ccccc2-c2ccc(C(=O)O)cc2)cc(OC)c1OC
Apoptosis (HL-60 [1]): 22% | Activity (HL-60 [2]): 220 no. of living cells (10E3) /mL

CC1(C)CCC(C)(C)c2cc(/C=C/c3ccc(C(=O)O)cc3)ccc21
Apoptosis (HL-60 [1]): 36% | Activity (HL-60 [2]): 155 no. of living cells (10E3) /mL

CC(=O)OC[C@H](OC(C)=O)/C(C)=C/C=C/C(C)=C/C=C1/C(C)=CCCC1(C)C
Apoptosis (HL-60 [1]): 40% | Activity (HL-60 [2]): 129 no. of living cells (10E3) /mL

COc1cc(-c2cccc(-c3ccc(C(=O)O)cc3)c2)cc(OC)c1OC
Apoptosis (HL-60 [1]): 17% | Activity (HL-60 [2]): 350 no. of living cells (10E3) /mL

CC1=C(/C=C/C(C)=C/C=C/[C@](C)(O)[C@@H](O)CO)C(C)(C)CCC1
Apoptosis (HL-60 [1]): 37% | Activity (HL-60 [2]): 149 no. of living cells (10E3) /mL

COc1cc(/C=C\c2ccc(C(=O)O)cc2)cc(OC)c1OC
Apoptosis (HL-60 [1]): 42% | Activity (HL-60 [2]): 100 no. of living cells (10E3) /mL

CC(=O)CC[C@H](O)[C@@](C)(O)/C=C/C=C(C)/C=C/C1=C(C)CCCC1(C)C
Apoptosis (HL-60 [1]): 41% | Activity (HL-60 [2]): 129 no. of living cells (10E3) /mL

CC(=O)OC[C@H](OC(C)=O)[C@@](C)(O)/C=C/C=C(C)/C=C/C1=C(C)CCCC1(C)C
Apoptosis (HL-60 [1]): 30% | Activity (HL-60 [2]): 207 no. of living cells (10E3) /mL

COc1cc(-c2ccc(-c3ccc(C(=O)O)cc3)cc2)cc(OC)c1OC
Apoptosis (HL-60 [1]): 18% | Activity (HL-60 [2]): 300 no. of living cells (10E3) /mL
